For data set [1], the target named is T1, Solute carrier family 22 member 6 (Rattus norvegicus, UniProt O35956).
T1 sequence (O35956 whole entry): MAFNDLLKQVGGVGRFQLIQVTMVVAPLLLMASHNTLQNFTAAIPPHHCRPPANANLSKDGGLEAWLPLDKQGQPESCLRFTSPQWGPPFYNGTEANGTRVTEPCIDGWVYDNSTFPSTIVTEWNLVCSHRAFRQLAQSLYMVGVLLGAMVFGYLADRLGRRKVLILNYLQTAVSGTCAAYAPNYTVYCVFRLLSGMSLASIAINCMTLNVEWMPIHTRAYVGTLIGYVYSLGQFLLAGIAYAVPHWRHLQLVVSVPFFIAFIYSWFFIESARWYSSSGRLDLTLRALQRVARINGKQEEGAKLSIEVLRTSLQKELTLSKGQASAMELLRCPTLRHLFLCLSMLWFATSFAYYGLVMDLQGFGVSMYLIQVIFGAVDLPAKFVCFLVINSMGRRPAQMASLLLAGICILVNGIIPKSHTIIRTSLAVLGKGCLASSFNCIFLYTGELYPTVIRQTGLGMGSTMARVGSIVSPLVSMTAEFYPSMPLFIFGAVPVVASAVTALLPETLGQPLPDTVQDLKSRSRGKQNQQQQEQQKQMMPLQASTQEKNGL
Nature of the data set: TP_TRANSPORTER: inhibition of PAH uptake in Xenopus laevis oocytes. Format: functional, cell-based, Oocyte. The note with it: for Activity: xenopus laevis, oocyte.

Data set [2] addresses T1, Solute carrier family 22 member 6. The experiment in a line: TP_TRANSPORTER: uptake in Xenopus laevis oocytes. In kind it is functional, cell-based. The note with it: oocyte.
Substrate in data set [3]: Nc1ccc(C(=O)NCC(=O)O)cc1
Nature of the data set: cells, lysate or membranes named.

The text below walks through data of ChEMBL document CHEMBL2074230, “Interaction and transport of thiazide diuretics, loop diuretics, and acetazolamide via rat renal organic anion transporter rOAT1” (J Pharmacol Exp Ther, 2000).

Turning to `CC(=O)Nc1nnc(S(N)(=O)=O)s1` [ACETAZOLAMIDE], the affinity in data set [1], expressed as Ki, was 1100 µM. The Activity entry in data set [2] was “substrate [+]”.

Molecule `CCCCNc1cc(C(=O)O)cc(S(N)(=O)=O)c1Oc1ccccc1` [BUMETANIDE] gave a Ki in data set [1] of 5.5 µM. This lies in the single-digit micromolar range. Consider `NS(=O)(=O)c1cc2c(cc1Cl)N=CNS2(=O)=O` [CHLOROTHIAZIDE], for which the Activity result in data set [1] is “inhibitor [+]”. The same measure, in the same setting: under `NS(=O)(=O)c1cc2c(cc1Cl)NC(C1CC3C=CC1C3)NS2(=O)=O` (stereo unspecified) [CYCLOTHIAZIDE] stands “inhibitor [+]”; under `CCOc1ccc2nc(S(N)(=O)=O)sc2c1` [ETHOXZOLAMIDE], “inhibitor [+]”. In data set [1], `NS(=O)(=O)c1cc(C(=O)O)c(NCc2ccco2)cc1Cl` [FUROSEMIDE] yielded an inhibitory constant (Ki) of 9.5 µM. In data set [2], the Activity entry is “substrate [+]”. With `NS(=O)(=O)c1cc2c(cc1Cl)NCNS2(=O)=O` [HYDROCHLOROTHIAZIDE], the Ki in data set [1] is 150 µM.

`CC(=O)/N=c1/sc(S(N)(=O)=O)nn1C` [METHAZOLAMIDE]: in data set [1], the Activity entry is “inhibitor [+]”.

B1: Solute carrier family 22 member 6 (Rattus norvegicus) (protein)
chain: T1 sequence (O35956 whole entry)
For the molecule B1, the Km in data set [3] came to 31 µM.

In general, Ki refers to the equilibrium dissociation constant of an inhibitor or competing ligand from its target. Low readings indicate higher affinity, high ones lower affinity. The term Km denotes the substrate concentration at which the rate is half of its maximum.
